Assay [1] is described as follows: Adjuvant arthritis test in the rat (Test A). The class given is in vivo. The note with it: for ED50: Rattus norvegicus. The method, then:
For this test adjuvant arthritis is induced according to the method of Pearson and Wood, "Arthr. Rheum."2, 440 (1959). Compounds of the invention, e.g. compounds of formula I, are active in this test against developing and established arthritis at dosages of from 5 to 30 mg/kg/day.

A short description of assay [2]: Yeast-induced fever test in the rat (Test B). The note with it: for ED50: Rattus norvegicus, read-out: Yeast fever ED50. The class given is in vivo, male rats (Sprague-Dawley). The method, then:
For this test male rats (Sprague-Dawley) of 130-180 g are fasted overnight. Body temperature is measured the following morning using a thermistor rectal probe connected to a telethermometer. 1 ml/100 g body weight of a 15% suspension of dried baker's yeast in saline is then injected s.c.. Body temperature is measured 2 hours later and this value taken as the initial temperature. 6 hours after yeast injection the test animals receive an oral dosage of the test substance suspended in 0.5% tragacanth or tragacanth alone (control). Body temperature is again measured after a further 2 hours.
Increase in temperature for each rat is calculated and expressed as a % of average increase determined in the control group (ca. 2.3° C. above normal). The ED50, estimated by regression analysis, is taken as the dosage at which increase in rectal temperature is 50% of that in the control group. Compounds of the invention, e.g. compounds of formula I, are active in this test at dosages of from 15 to 60 mg/kg.

Assay [3] can be described thus: Arthritis pain test in the rat (Test C). The class given is in vivo, male rats (OFA). The note with it: for ED50: Rattus norvegicus, read-out: Arthritis pain ED50. The method, then: For this test male rats (OFA) of 110-120 g are treated with 0.1 ml of a Mycobacterium butyricum suspension in paraffin oil (0.6 mg Mycobact./0.1 ml oil) injected i.c. into the tail root. Marked arthritis in the hind-paws develops ca. 12 days after treatment. 30 mins. before administration of test-substance, control measurement is performed by flexing the foot joint of the right or left hind-paw using a Statham transducer until vocalisation occurs. […] Test substance is administered orally and the flexion procedure repeated 1,3 and 5 hours subsequently. The pressure at which vocalisation occurs is noted, the value recorded for each rat at each interval being the average value of three successive measurements. Animals in which the vocalisation threshold is doubled with respect to the control measurement are considered to be protected. The ED50 estimated for each post-treatment time according to the Probit method is taken as the dosage at which 50% of animals are protected. Compounds of the invention, e.g. compounds of formula I, are active in this test at dosages of from 3.2 to 100 mg/kg.

`COC1=Cc2ccccc2C(=CC(=O)O)c2ccsc21` [A, [10-methoxy-4H-benzo[4,5]cyclohepta[1,2-b]thiophen-4-ylidene]-acetic acid]: the ED50 – broadly, the midpoint of the dose-response relation – amounted to 15 mg/kg in assay [1] (Test A, developing arthritis, compound A as cis/trans (Z,E) isomer mixture, read-out: Developing arthritis ED50); 8 mg/kg in assay [1] (Test A, developing arthritis, using cis (Z) isomer, read-out: Developing arthritis ED50); 15 mg/kg in assay [1] (Test A, established arthritis, compound A as cis/trans (Z,E) isomer mixture, read-out: Established arthritis ED50); 16 mg/kg in assay [1] (Test A, established arthritis, using cis (Z) isomer, read-out: Established arthritis ED50); 22 mg/kg in assay [2] (Test B, oral, temperature 2 h after dosing, compound A as cis (Z) isomer); 7 mg/kg in assay [3] (Test C, oral, 50% of animals protected, compound A as cis (Z) isomer). Further, in assay [1] (pure cis-isomer), the “indicated daily dosage relative to acetylsalicylic acid, anti-inflammatory therapy” value was 1/15. The “indicated daily dosage relative to acetylsalicylic acid, anti-pyretic therapy” value in assay [2] (cis-isomer) was 1/7. Besides, the “indicated daily dosage relative to acetylsalicylic acid, analgesic therapy” value in assay [3] (cis-isomer) is listed as 1/12.

Take `CC(=O)Oc1ccccc1C(=O)O` [B, acetylsalicyclic acid, reference compound]: the ED50 in assay [1] (read-out: Developing arthritis ED50) was 140 mg/kg; in assay [1] (read-out: Established arthritis ED50), 240 mg/kg; in assay [2] (po, 2 h) it was 161 mg/kg; in assay [3] (po) it was 90 mg/kg.

The values above are taken from patent US4740518A, “4H-benzo(4,5)cyclohepta(1,2-B)thiophene derivatives” (Sandoz Ltd., priority 1983, dated 1988).
